Results reported in patent US20180002288A1, “USE OF PICOLINAMIDES AS FUNGICIDES” (DOW AGROSCIENCES LLC, priority 2014, published 2018).
Read-outs that look alike come from different tables or passages of the source.

Key:
Type in all cases: in vivo
[1] = test system: Colletotrichum lagenarium; test: Cucumber Anthracnose fungicidal activity (COLLLA); details: Colletotrichum orbiculare, 24 h, high volume, 1 Day Protectant, read-out: COLLLA % Control rating
Method: (§1) All fungicides were evaluated using the aforementioned method for their activity vs. all target diseases, unless stated otherwise. Wheat leaf blotch and brown rust activity were also evaluated using track spray applications, in which case the fungicides were formulated as EC formulations, containing 0.1% Trycol 5941 in the spray solutions. Wheat plants (variety Yuma) were grown from seed in a greenhouse in 50% mineral soil/50% soil-less Metro mix until the first leaf was fully emerged, with 7-10 seedlings per pot. These plants were inoculated with an aqueous spore suspension of Zymoseptoria tritici either prior to or after fungicide treatments. After inoculation the plants were kept in 100% relative humidity (one day in a dark dew chamber followed by two to three days in a lighted dew chamber at 20° C.) to permit spores to germinate and infect the leaf. The plants were then transferred to a greenhouse set at 20° C. for disease to develop. When disease symptoms were fully expressed on the 1st leaves of untreated plants, infection levels were assessed on a scale of 0 to 100 percent disease severity. Percent disease control was calculated using the ratio of disease severity on treated plants relative to untreated plants. Cucumber seedlings (variety Bush Pickle) were propagated in soil-less Metro mix, with each pot having one plant, and used in the test when 12 to 14 days old. Test plants were inoculated with an aqueous spore suspension of Colletotrichum lagenarium 24 hr after fungicide treatments. After inoculation the plants were kept in a dew room at 22° C. with 100% relative humidity for 48 hr to permit spores to germinate and infect the leaf. The plants were then transferred to a growth room set at 22° C. for disease to develop. Fungicide formulation, application and disease assessment on the sprayed leaves followed the procedures as described in the Example A.

Alternaria solani = test: Tomato Early Blight fungicidal activity (ALTESO); details: 24 h, high volume, 1 Day Protectant, read-out: ALTESO % Control rating
Method: as §1, with “Tomato plants” for “Cucumber seedlings”, “Outdoor Girl)” for “Bush Pickle)”, “used” for “used in the test”, “Alternaria solani” for “Colletotrichum lagenarium”, “room” for “room set”

Puccinia triticina = test: Wheat Brown Rust fungicidal activity (PUCCRT); details: Low Volume Cereal Activity at 121.5 g/Ha
Venturia inaequalis = test: Apple Scab fungicidal activity (VENTIN); details: 24 h, high volume, 1 Day Protectant, read-out: VENTIN % Control rating
Method: All fungicides were evaluated using the aforementioned method for their activity vs. all target diseases, unless stated otherwise. Wheat leaf blotch and brown rust activity were also evaluated using track spray applications, in which case the fungicides were formulated as EC formulations, containing 0.1% Trycol 5941 in the spray solutions. Wheat plants (variety Yuma) were grown from seed in a greenhouse in 50% mineral soil/50% soil-less Metro mix until the first leaf was fully emerged, with 7-10 seedlings per pot. These plants were inoculated with an aqueous spore suspension of Zymoseptoria tritici either prior to or after fungicide treatments. After inoculation the plants were kept in 100% relative humidity (one day in a dark dew chamber followed by two to three days in a lighted dew chamber at 20° C.) to permit spores to germinate and infect the leaf. The plants were then transferred to a greenhouse set at 20° C. for disease to develop. When disease symptoms were fully expressed on the 1st leaves of untreated plants, infection levels were assessed on a scale of 0 to 100 percent disease severity. Percent disease control was calculated using the ratio of disease severity on treated plants relative to untreated plants. […] Seedlings with two expanding young leaves at the top (older leaves at bottom of the plants were trimmed) were used in the test. Plants were inoculated with a spore suspension of Venturia inaequalis 24 hr after fungicide treatment and kept in a 22° C. dew chamber with 100% relative humidity for 48 hr, and then moved to a greenhouse set at 20° C. for disease to develop. Fungicide formulation, application and disease assessment on the sprayed leaves followed the procedures as described in the Example A.

[2] = 24 h, 1 Day Protectant, read-out: PUCCRT 1DP (Wheat Brown Rust, 1 Day Protectant)
[3] = 72 h, 3 Day Curative, read-out: PUCCRT 3DC (Wheat Brown Rust, 3 Day Curative)

| Structure (SMILES) | pest or weed control at 100 ppm [1] | pest or weed control at 100 ppm (Alternaria solani) | pest or weed control at 121.5 g/ha (Puccinia triticina; [2]) | pest or weed control at 121.5 g/ha (Puccinia triticina; [3]) | pest or weed control at 100 ppm (Venturia inaequalis) |
| --- | --- | --- | --- | --- | --- |
| COc1ccnc(C(=O)N[C@@H](C)C(=O)O[C@@H](C)[C@H](Oc2ccccc2)c2ccccc2)c1OCOC(C)=O [Example 183] | > 80% | < 80% | > 80% | > 80% | < 80% |
| COc1ccnc(C(=O)N[C@@H](C)C(=O)O[C@@H](C)[C@H](Oc2cccc(F)c2)c2ccccc2)c1OCOC(C)=O [Example 187] | > 80% | < 80% | > 80% | > 80% |  |
| COc1ccnc(C(=O)N[C@@H](C)C(=O)O[C@@H](C)[C@H](Oc2cccc(Cl)c2)c2ccccc2)c1OCOC(C)=O [Example 202] | < 80% | < 0% | > 80% | < 80% |  |
| COc1ccnc(C(=O)N[C@@H](C)C(=O)O[C@@H](C)[C@H](Oc2ccccc2Cl)c2ccccc2)c1OC(C)=O [Example 205] | > 80% | < 80% | > 80% | > 80% |  |
| COc1ccnc(C(=O)N[C@@H](C)C(=O)O[C@@H](C)[C@H](Oc2cc(F)cc(Cl)c2)c2ccccc2)c1OC(C)=O [Example 207] | > 80% | < 0% | > 80% | < 80% | > 80% |
| COc1ccnc(C(=O)N[C@@H](C)C(=O)O[C@@H](C)[C@H](Oc2ccc(F)cc2)c2ccccc2)c1OC(C)=O [Example 235] | > 80% | < 80% | > 80% | > 80% | < 80% |
| COc1ccnc(C(=O)N[C@@H](C)C(=O)O[C@@H](C)C(Oc2ccc(F)cc2)c2ccccc2)c1OC(C)=O (stereo partly drawn) [Example 236] | < 80% | < 80% | > 80% | > 80% | > 80% |
| COc1ccnc(C(=O)N[C@@H](C)C(=O)O[C@@H](C)[C@H](Oc2ccc(F)cc2)c2ccccc2)c1OCOC(C)=O [Example 237] | < 80% | < 80% | > 80% | > 80% | < 80% |
| COc1ccnc(C(=O)N[C@@H](C)C(=O)O[C@@H](C)C(Oc2ccc(F)cc2)c2ccc(F)cc2)c1OCOC(C)=O (stereo partly drawn) [Example 238] | < 80% | > 80% | > 80% | > 80% | > 80% |
| COc1ccnc(C(=O)N[C@@H](C)C(=O)O[C@@H](C)[C@H](Oc2ccccc2)c2ccc(F)cc2F)c1OCOC(C)=O [Example 250] | > 80% | < 0% | > 80% | > 80% |  |
| COc1ccnc(C(=O)N[C@@H](C)C(=O)O[C@@H](C)[C@H](Oc2ccccc2)c2ccc(C)cc2)c1OCOC(C)=O [Example 252] | > 80% | < 0% | > 80% | > 80% | < 80% |
| COc1ccccc1[C@@H](Oc1ccccc1)[C@H](C)OC(=O)[C@H](C)NC(=O)c1nccc(OC)c1OCOC(C)=O [Example 255] | > 80% | < 0% | > 80% | > 80% | < 80% |
| COc1cc(F)ccc1[C@@H](Oc1ccccc1)[C@H](C)OC(=O)[C@H](C)NC(=O)c1nccc(OC)c1OCOC(C)=O [Example 256] | > 80% | < 80% | > 80% | > 80% |  |
| COc1ccnc(C(=O)N[C@@H](C)C(=O)O[C@@H](C)[C@H](Oc2ccccc2)c2ccc(F)cc2C)c1OCOC(C)=O [Example 259] | > 80% | < 0% | > 80% | > 80% | < 80% |
| COc1ccnc(C(=O)N[C@@H](C)C(=O)O[C@@H](C)[C@H](Oc2ccccc2)c2ccc(F)cc2Cl)c1OCOC(C)=O [Example 260] | > 80% | < 0% | > 80% | > 80% | < 80% |
| COc1ccnc(C(=O)N[C@@H](C)C(=O)O[C@@H](C)[C@H](Oc2ccccc2)c2ccc3ccccc3c2)c1OCOC(C)=O [Example 263] | > 80% | < 0% | > 80% | > 80% | < 80% |
